{"source": "paper PMC8391312", "about": "(Biomedicines, 2021)", "parameters": "species or system BALB/cAnNHsd mice", "conditions": "mouse, in vivo, ip", "data": [{"substance": "insulin: recombinant insulin (Humalog, Eli-Lilly), positive control in glucose tolerance test", "values": [{"measurement": "blood glucose levels compared to the PBS and s-cal14.2b groups 30 min after administration", "value": "significantly lower"}, {"measurement": "change of blood glucose levels compared to the PBS control group after five minutes", "value": "did not significantly change"}]}]}
